Experimental findings from patent US20140128357A1, “METHODS OF PRODUCING AND USING BRASSINOSTEROIDS TO PROMOTE GROWTH, REPAIR AND MAINTENANCE OF SKELETAL MUSCLE AND SKIN” (Rutgers University, priority 2010, published 2014) are described below.

Assay [1] concerns cutaneous wound in C57BL/6J mice. Put plainly: Mouse cutaneous injury model of wound healing. It counts as in vivo. On the procedure: Under volatile anesthesia (5% isoflurane to effect), the shoulder and back region of each animal was shaved. A sharp punch (ID 6 mm) over their lumbar spine was applied to remove the skin, including panniculus carnosus and adherent tissues. Test substances were administered topically (TOP), immediately following cutaneous injury, once daily for 10 consecutive days. […] Wounds were traced onto clear plastic sheets and were measured by use of an ImageJ program (rsbweb.nih.gov/ij/), online from the National Institutes of Health (NIH). ImageJ is a public domain, Java-based image processing program developed at the NIH. Time to wound closure was estimated by comparing the area of the wound undergoing treatment to the areas of the wound undergoing control treatments. The percent closure of the wound (%) was calculated, and wound half-closure time (the time at which 50% of the cutaneous wound is closed, CT50) was analyzed by linear regression using Graph-Prism (Graph Software USA). At the end of experiment (10 days after the induction of the wound), animals were euthanized by CO2 gas inhalation. Blood was collected by heart puncture. Wound tissue and muscle were collected for immunohistochemical analyses and wound healing factor assays. HB increased the percent of wound closure in vivo in a mouse model of wound closure (FIG. 13). […] Twenty seven six-week-old male C57BL/6J mice, obtained from the Jackson Laboratory (Bar Harbor, Me.), were housed in individual chambers in a room maintained at a constant temperature with 12 h light-dark cycle. Mice had free access to food and water. Mice were allowed to adapt to new conditions for seven days and handling the mice was performed daily during this time to reduce the stress of physical manipulation. Mice were randomized into groups (n=9) according to body weight one day prior to dosing. Under volatile anesthesia (5% isoflurane to effect), the shoulder and back region of each animal was shaved. A sharp punch (ID 6 mm) over lumbar spine was applied to remove the skin including panniculus carnosus and adherent tissues. […] Pharmacol. 77: 1117-1124, 2009) as a positive control) was administered topically, immediately following cutaneous injury, and then daily for 10 days. To investigate the kinetics of wound healing, wound size was photographed and measured every two days with ImageJ software (rsbweb.nih.gov/ij/). […] The percent closure of the wound (%) was calculated, and time at which 50% of the cutaneous wound was closed (CT50) was analyzed by linear regression. […] Wound sizes were photographed and measured every 2 days for 10 days. Wound closure (%) relative to day 1 was determined every 2 days, and CT50 was calculated by linear regression. […]

The target of assay [2] is T1, rat nuclear androgen receptor (Rattus norvegicus, UniProt P15207).
T1 construct: MDS Pharma Services (Taiwan), the contract laboratory that ran the assay
T1 sequence (P15207 1-902): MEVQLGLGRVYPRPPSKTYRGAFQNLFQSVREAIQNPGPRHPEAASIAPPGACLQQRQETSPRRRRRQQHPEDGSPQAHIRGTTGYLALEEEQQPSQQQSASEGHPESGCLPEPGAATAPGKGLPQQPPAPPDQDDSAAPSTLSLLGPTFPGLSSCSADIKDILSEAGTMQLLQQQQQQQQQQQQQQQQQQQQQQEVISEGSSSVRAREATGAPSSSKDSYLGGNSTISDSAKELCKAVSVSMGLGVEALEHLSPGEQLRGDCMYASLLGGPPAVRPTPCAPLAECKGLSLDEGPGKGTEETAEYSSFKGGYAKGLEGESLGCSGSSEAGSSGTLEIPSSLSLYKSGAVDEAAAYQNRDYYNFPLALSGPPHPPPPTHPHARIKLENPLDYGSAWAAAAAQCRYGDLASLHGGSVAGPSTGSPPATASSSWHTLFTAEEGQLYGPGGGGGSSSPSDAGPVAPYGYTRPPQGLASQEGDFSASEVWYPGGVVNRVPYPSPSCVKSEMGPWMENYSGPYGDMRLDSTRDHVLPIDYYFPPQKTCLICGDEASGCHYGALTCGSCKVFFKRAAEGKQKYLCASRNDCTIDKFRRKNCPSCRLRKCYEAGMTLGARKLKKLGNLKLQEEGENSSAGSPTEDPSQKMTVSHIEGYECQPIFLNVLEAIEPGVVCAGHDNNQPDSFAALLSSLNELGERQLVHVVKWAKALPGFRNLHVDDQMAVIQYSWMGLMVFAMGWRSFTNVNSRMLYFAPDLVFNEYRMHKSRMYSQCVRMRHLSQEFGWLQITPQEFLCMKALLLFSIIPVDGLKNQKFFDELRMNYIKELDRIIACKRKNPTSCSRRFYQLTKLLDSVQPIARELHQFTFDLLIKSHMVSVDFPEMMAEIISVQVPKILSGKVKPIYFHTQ
Kind of assay: Rat androgen receptor binding, [3H]-mibolerone displacement. The settings on record: 0.01 μM up to 10 μM. On the procedure: Rat androgen receptor binding assays were performed by MDS Pharma Services (Taiwan) as described elsewhere (Chang et al., J. Steroid Biochem. 27:123-131, 1987), incorporated herein by reference.

Where [3] appears, read: 10 μg/mouse/day topically for 10 days.

With `CC[C@@H](C(C)C)[C@H](O)[C@@H](O)[C@@H](C)[C@H]1CC[C@H]2[C@@H]3COC(=O)[C@H]4C[C@H](O)[C@H](O)C[C@]4(C)[C@H]3CC[C@]12C` [Compound 1, (22S,23S,24S)-2α,3α,22,23-tetrahydroxy-24 ethyl-β-homo-7-oxo-5α-cholestane-6-one], in assay [1] (setting [3]), the “CT50, time at which 50% of the cutaneous wound is closed” value was determined as 5.4 ± 0.3 days and the “cutaneous wound healing compared with vehicle” value is given as “significantly improved”. Further, in assay [1] (10 μg/mouse/day topically, percent of original wound size), the “increase in speed of wound closure relative to control mice” value is 2 fold. In assay [2], the “binding to androgen receptor” value is given as “no significant binding”.
